Assay results as given in US20210355107A1, “MULTI-SUBSTITUTED PYRIDONE DERIVATIVES AND MEDICAL USE THEREOF” (Beijing Yuezhikangtai Biomedicines Co., Ltd., priority 2018, published 2021).

Experiments:
kinase c-MET = target: T1, kinase c-MET (Homo sapiens, UniProt P08581); assay: Mobility shift assay, inhibitory activity against kinase c-MET; format: biochemical; settings: ATP at Km (35 μM), average of two independent experiments
T1 construct: purchased Carna 08-151
Experimental: (§1) In this test, mobility shift assay was used to test the inhibitory activity of compounds when ATP concentrations correspond to the Km of the kinases.
(§2) The concentration of test compound was 10-fold diluted from an initial concentration of 10 μM. The test result (IC50) was the average of two independent experiments.
(§3) For example, a compound at an initial concentration of 10 μM was adjusted to 500 μM with 100% DMSO, then serially diluted for 10 concentrations, and then subjected to 10-fold dilution with the buffer to prepare a diluted compound intermediate containing 10% DMSO, 5 μL of which was transferred to the 384-well plate.
(§4) 10 μL of the two enzyme solutions each was added to the 384-well plate and co-incubated with the compound for 10-15 min at room temperature.
(§5) 10 μL of the diluted substrate was added to the 384-well plate to initiate the reaction, which lasts for 1 h at 28° C.
(§6) 5) The conversion rate was read by Caliper Reader (Perkin Elmer) and the inhibition rate was calculated as the average of two tests.
(§7) 6) IC50 values were fitted with XL-fit software.

kinase Axl = target: T2, kinase Axl (Homo sapiens, UniProt P30530); assay: Mobility shift assay, inhibitory activity against kinase Axl; format: biochemical; settings: ATP at Km (81 μM), average of two independent experiments
T2 construct: purchased Carna 08-107
T2 sequence (P30530 473-894 limits assumed): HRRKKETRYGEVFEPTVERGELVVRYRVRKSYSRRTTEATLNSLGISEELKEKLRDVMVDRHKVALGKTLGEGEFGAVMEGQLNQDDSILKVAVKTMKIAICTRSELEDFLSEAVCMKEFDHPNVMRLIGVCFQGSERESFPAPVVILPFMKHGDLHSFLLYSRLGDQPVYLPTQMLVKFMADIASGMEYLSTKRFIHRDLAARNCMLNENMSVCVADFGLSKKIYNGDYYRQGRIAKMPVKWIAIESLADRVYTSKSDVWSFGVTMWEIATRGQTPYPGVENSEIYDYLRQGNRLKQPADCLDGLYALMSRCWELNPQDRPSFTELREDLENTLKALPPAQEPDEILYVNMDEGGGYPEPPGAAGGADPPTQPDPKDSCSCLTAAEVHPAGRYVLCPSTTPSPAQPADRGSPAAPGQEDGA
Experimental: as §1, §2, §3, §4, §5, §6, §7

T1 sequence (P08581 956-1390 limits assumed): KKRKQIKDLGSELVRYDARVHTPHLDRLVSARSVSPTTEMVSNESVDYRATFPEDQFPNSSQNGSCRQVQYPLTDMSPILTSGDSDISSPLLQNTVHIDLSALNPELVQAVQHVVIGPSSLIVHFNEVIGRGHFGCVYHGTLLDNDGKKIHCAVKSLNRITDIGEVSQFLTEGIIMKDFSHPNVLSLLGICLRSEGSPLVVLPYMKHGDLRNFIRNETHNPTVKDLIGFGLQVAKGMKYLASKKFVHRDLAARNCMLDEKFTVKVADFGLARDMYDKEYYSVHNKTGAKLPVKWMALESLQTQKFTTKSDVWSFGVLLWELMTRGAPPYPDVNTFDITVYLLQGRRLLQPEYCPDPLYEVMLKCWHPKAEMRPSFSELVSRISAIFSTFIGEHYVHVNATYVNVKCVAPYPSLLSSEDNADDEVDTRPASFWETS

Row | SMILES | IC50 (kinase c-MET) | IC50 (kinase Axl)
1 | CCn1cc(-c2cnc(N)c(-c3ccc(NC(=O)c4cc(C5CC5)c(C#N)n(-c5ccc(F)cc5)c4=O)cc3F)c2)cn1 [Example 14, N-(4-(2-amino-5-(1-ethyl-1H-pyrazol-4-yl)pyridin-3-yl)-3-fluorophenyl)-6-cyano-5-cyclopropyl-1-(4-fluorophenyl)-2-oxo-1,2-dihydropyridine-3-carboxamide] | 82 nM | 12 nM
2 | COc1cc2nccc(Oc3ccc(NC(=O)c4cc(Br)c(O)n(-c5ccc(F)cc5)c4=O)cc3F)c2cc1OC [Example 29B, 5-bromo-N-(4-((6,7-dimethoxyquinolin-4-yl)oxy)-3-fluorophenyl)-1-(4-fluorophenyl)-6-hydroxy-2-oxo-1,2-dihydropyridine-3-carboxamide] | 30 nM | 3.9 nM
3 | COCc1c(C)cc(C(=O)Nc2ccc(Oc3ccnc4cc(OC)c(OC)cc34)c(F)c2)c(=O)n1-c1ccc(F)cc1 [Example 28, 5-methyl-N-(4-((6,7-dimethoxyquinolin-4-yl)oxy)-3-fluoro-phenyl)-1-(4-fluorophenyl)-6-(methoxymethyl)-2-oxo-1,2-dihydropyridine-3-carboxamide] | 21 nM | 1 nM
4 | CC(C)n1cc(C(=O)Nc2ccc(-c3cc(-c4cnn(C5CCOCC5)c4)cnc3N)c(F)c2)c(=O)c(-c2ccc(F)cc2)c1C#N [Example 5, N-(4-(2-amino-5-(1-(tetrahydro-2H-pyran-4-yl)-1H-pyrazol-4-yl)-pyridin-3-yl)-3-fluorophenyl)-6-cyano-5-(4-fluorophenyl)-1-isopropyl-4-oxo-1,4-dihydro-pyridine-3-carboxamide] | 38 nM | 2.6 nM
5 | N#Cc1c(-c2ccc(F)cc2)c(=O)c(C(=O)Nc2ccc(-c3cc(-c4cnn(C5CCNCC5)c4)cnc3N)c(F)c2)cn1C1CCC1 [Example 8, N-(4-(2-amino-5-(1-(piperidin-4-yl)-1H-pyrazol-4-yl)pyridin-3-yl)-3-fluorophenyl)-6-cyano-5-(4-fluorophenyl)-1-cyclobutyl-4-oxo-1,4-dihydropyridine-3-carboxamide] | 17 nM | 1.1 nM

Results, then the compound that gave them:

Row | IC50 (kinase c-MET) | IC50 (kinase Axl) | SMILES
6 | 23 nM | 1.8 nM | C=C(C)c1cc(C(=O)Nc2ccc(-c3cc(-c4cnn(C5CCNCC5)c4)cnc3N)c(F)c2)c(=O)n(-c2ccc(F)cc2)c1C#N [Example 17, N-(4-(2-amino-5-(1-(piperidin-4-yl)-1H-pyrazol-4-yl)pyridin-3-yl)-3-fluorophenyl)-6-cyano-1-(4-fluorophenyl)-2-oxo-5-(prop-1-en-2-yl)-1,2-dihydropyridine-3-carboxamide]
7 | 143 nM | 9.8 nM | N#Cc1c(C2CC2)cc(C(=O)Nc2ccc(-c3cc(-c4cnn(C5CCOCC5)c4)cnc3N)c(F)c2)c(=O)n1-c1ccc(F)cc1 [Example 16, N-(4-(2-amino-5-(1-(tetrahydro-2H-pyran-4-yl)-1H-pyrazol-4-yl)pyridin-3-yl)-3-fluorophenyl)-6-cyano-5-cyclopropyl-1-(4-fluorophenyl)-2-oxo-1,2-dihydro-pyridine-3-carboxamide]
